Results reported in PMC4839669, “Heterologous Expression and Biochemical Characterization of Two Lipoxygenases in Oriental Melon, Cucumis melo var. makuwa Makino” (PLoS ONE, 2016).

Target: T1, CmLOX10 (Cucumis melo, UniProt A0A125S6K7)
T1 construct: gene LOX10; full-length 902 residues incl. predicted 37-residue transit peptide; N-terminal His tag (pET-30a), E. coli BL21(DE3), Ni-NTA
T1 sequence (A0A125S6K7 1-902): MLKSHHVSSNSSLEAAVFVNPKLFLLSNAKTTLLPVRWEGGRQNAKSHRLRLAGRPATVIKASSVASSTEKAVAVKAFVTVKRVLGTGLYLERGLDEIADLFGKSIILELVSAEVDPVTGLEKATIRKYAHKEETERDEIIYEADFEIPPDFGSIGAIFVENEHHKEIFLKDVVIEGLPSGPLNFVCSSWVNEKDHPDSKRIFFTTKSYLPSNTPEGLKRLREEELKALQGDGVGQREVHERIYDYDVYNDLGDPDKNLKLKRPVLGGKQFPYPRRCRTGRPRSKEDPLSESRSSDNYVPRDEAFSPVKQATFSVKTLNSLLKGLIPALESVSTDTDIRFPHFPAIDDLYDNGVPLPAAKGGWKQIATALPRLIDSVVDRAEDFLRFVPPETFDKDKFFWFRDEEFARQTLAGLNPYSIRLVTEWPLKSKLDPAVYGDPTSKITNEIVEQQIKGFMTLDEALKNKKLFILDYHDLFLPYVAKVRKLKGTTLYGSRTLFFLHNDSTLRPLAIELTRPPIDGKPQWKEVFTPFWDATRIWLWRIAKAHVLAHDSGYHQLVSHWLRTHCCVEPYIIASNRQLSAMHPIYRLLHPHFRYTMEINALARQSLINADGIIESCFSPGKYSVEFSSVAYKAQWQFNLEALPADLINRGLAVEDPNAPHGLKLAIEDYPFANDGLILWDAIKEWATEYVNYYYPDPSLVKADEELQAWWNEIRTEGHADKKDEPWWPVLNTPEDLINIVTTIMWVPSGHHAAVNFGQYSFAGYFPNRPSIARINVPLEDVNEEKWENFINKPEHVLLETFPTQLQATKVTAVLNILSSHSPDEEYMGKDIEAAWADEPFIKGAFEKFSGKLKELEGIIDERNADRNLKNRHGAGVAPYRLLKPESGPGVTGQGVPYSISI
Experiment: conjugated diene formation at […] nm, Michaelis-Menten
Assay type: biochemical
Details: 25 °C, saturating oxygen, 16.5-330 μM substrate; pH of kinetics not stated explicitly (optimum pH 5.0)

Question: With `CCCCC/C=C\C/C=C\CCCCCCCC(=O)O` [linoleic acid] as the compound, how does the Km read?
Answer: 230 µM

Question: `CC/C=C\C/C=C\C/C=C\CCCCCCCC(=O)O` [linolenic acid] was tested. Which Km did it give?
Answer: 140 µM
